Here are results for one compound from patent US10214507B2, “Carbazole-containing amides, carbamates, and ureas as cryptochrome modulators” (Reset Therapeutics, Inc., priority 2014, dated 2019).

SMILES strings stand for the structures. Where two headings read alike, the source gives them in different places.

Series [1] has as its system core clock gene mRNAs in mouse liver. As to the kind of experiment: Core clock gene mRNAs in liver after a single dose at peak or nadir of Cry1 expression. It counts as in vivo. To be noted: single dose 50 mg/kg, liver 7.5 hours later. The protocol: For compounds that interact directly with the core clock mechanism, the time of dosing may be critical for maximizing their effects. […] The former (ZTO) is coincident with the peak of Cry1 and Bmal1 protein in mouse liver and the latter (ZT10) corresponds to the approximate nadir of Cry1 and Bmal1. Liver tissue was taken 7.5 hours later for each, and the samples were examined for core clock gene mRNAs by RT-qPCR.

Series [2] in a line: 7 day dosing, glucose metabolism, insulin and compound levels in db/db mice. The settings on record: male, mouse, around 8 hours after last dose, 50 mg/kg PO 7 days. It counts as in vivo, mouse. The text has this:
(§1) Significance was accepted when p<0.05.

The test system of series [3] is db/db mouse model of type II diabetes. The description is as above. In kind it is in vivo. To be noted: 50 mg/kg PO 7 days.
From the text: as §1

For series [4], the system named is C57/Bl6J DIO mice. The experiment in a line: 7 day dosing in diet-induced obesity (DIO) mouse model. In kind it is in vivo. The settings on record: 100 mg/kg PO 7 days.
From the text: Male C57/Bl6J DIO mice were obtained from The Jackson Laboratory (Sacramento, Calif.). […] Animals were accustomed to these conditions for at least 2 weeks before experimentation and used at approximately 24 weeks of age.
as §1

Series [5] relates to core clock gene mRNAs in livers of ICR mice. As to the kind of experiment: Four day study, liver clock gene mRNA by RT-qPCR, ICR mice. In kind it is in vivo, mouse. To be noted: 50 mg/kg PO BID 4 days. The protocol:
Male ICR mice (weighing 30-35 g), obtained from Charles River Laboratories (Hollister, CA), were used for the experiment following at least 3 days of acclimation. Mice were dosed with vehicle (WFI or 10% Kolliphor) or compound (50 mg/kg, dose volume 5 mL/kg, PO) for 4 days BID (twice a day), beginning in the afternoon of the first day. The last dose of compound or vehicle was administered on the morning of harvest. On the day of harvest (6 hours following the final dose), mice were euthanized by CO2 asphyxiation and 50 mg of liver tissue was excised and placed in a tube containing 500 μl of RNA later.
E.Z.N.A.® HP Total RNA Isolation Kits (R6812-01 and the protocol described in the Manual, Revised 2010) were utilized to prepare and isolate RNA from the liver samples. To prepare the RNA samples, 10-30 mg of sample was removed from RNA-Later and placed in a 1.5 ml microfuge tube. GTC lysis buffer (700 μl) was added to the tissue, which was homogenized with a rotor-stator homogenizer (e.g. Tissue-Tearor, Model #985370 BioSpec Products with 4.5 mm probe, Cat. #985370-04), and then centrifuged at full speed (>13,000×g) for 5 minutes. The cleared supernatant was transferred by pipetting to a DNA Clearance Column Pre-inserted in a 2 mL Collection Tube. The assembled column was centrifuged at 13,000×g for 1 minute, and the flow-through was saved. An equal volume (700 μl) of 70% ethanol was added to the lysate and mixed. The sample was then applied to a HiBind RNA spin column placed into a 2 ml collection tube, which was centrifuged at 10,000×g for 60 seconds at room temperature. RNA Wash Buffer I (250 μl) was added by pipetting directly onto a new HiBind RNA column inserted in a 2 ml collection tube. The assembled column was centrifuged at 10,000×g for 60 seconds. The RNA column was placed into a new 2 ml collection tube. DNase I stock solution is pipetted (75 μl) directly onto the surface of the HiBind RNA resin in each column (Using DNAse Digestion with RNase Free DNase Set (E1091): for each HiBind RNA column, the DNase I stock solution was prepared as followed: E.Z.N.A.® DNase I Digestion Buffer 73.5μl, RNase Free DNase I (20 Kunitz/μl) 1.5 μl=Total Volume 75 μl.). The column with bound RNA was incubated at room temperature (25-30° C.) for 15 minutes. RNA Wash Buffer I (500 μl) was added to the column and placed on a bench top for 2 minutes. After centrifuging at 10,000×g for 60 seconds, discarding the flow-through, 500 μl of RNA Wash Buffer II was added and centrifuged at 10,000×g for 60 seconds. Another 500 μl of RNA Wash Buffer II was added and the column assembly was centrifuged at 10,000×g for 60 seconds. The column was centrifuged for 2 minutes at maximum speed to completely dry the HiBind matrix. The column was placed in a clean 1.5 ml microcentrifuge tube and 40-70 μl of molecular biology grade water is added. After sitting for 1 minute, the column was centrifuged for 2 minutes at maximum speed to elute the RNA. The isolated RNA was collected into the collection tube.
RediPlate 96 RiboGreen RNA Quantification Kit (Invitrogen) RediPlate standard curve was prepared by transferring 20 μl reconstituted RNA standard to a RediPlate well reconstituted in 180 μl RediPlate TE buffer. For liver RNAs prepared from 30-100 mg of tissue using a kit similar to the Omega Bio-Tek HP Total RNA Kit and eluted in RNAse-free water in a volume of 50 μl (microliters), 5 μl of the total RNA is diluted in 195 μl of RediPlate TE buffer (1:40 dilution of RNA), mix. After transferring 5 μl to RediPlate well reconstituted in 195 μl TE buffer and incubating 10 min. at RT, Fluorescence Intensity of wells with standards and samples were read in a Tecan M200 with Excitation set at 480 nm and Emission set at 520 nm with the gain set to −70%. Alternatively, one can use the FlexStation 3 with Ex 488 nm and Em 525 nm and a Cutoff of 515 nm.
On the technique in general: Quantitative PCR measures a nucleic acid by following its amplification.

Consider `O=C1NCCN1CC(O)Cn1c2ccc(F)cc2c2cc(F)ccc21` (stereo not shown) [Compound 72, 1-(3-(3,6-difluoro-9H-carbazol-9-yl)-2-hydroxypropyl)imidazolidin-2-one], for which, in series [1], the “impact on clock mRNAs, dosing at peak (ZT0) vs nadir (ZT10)” value is listed as “greater relative impact on the clock mRNAs at the peak compared to the nadir”. Moreover, the concentration at 8 h in series [2] (liver, read-out: compound level in liver) was determined as 670 nM. Besides, the concentration at 8 h in series [2] (plasma, read-out: compound level in plasma) came to 530 nM. In series [3], the HOMA-IR is on record as 93.69+/−23.60 units, the “fasting blood glucose (FBG)” value is 385.0 ± 29.69 mg/dL, the “glucose AUC calculated from the OGTT” value is 35942+/−3192 and the “plasma insulin at t=0” value stood at 3.78 ± 0.69 ng/mL. Moreover, in series [3] (after glucose load), the “plasma insulin at t=2 hr” value is 2.53 ± 0.50 ng/mL. Moreover, in series [3] (vs vehicle), the “reduction of HOMA-IR” value turned out to be 33%, the “reduction of insulin at t=0” value worked out at 20% and the “reduction of insulin at t=2 hr” value stood at 21%. In series [4], the HOMA-IR is recorded as 32.54+/−3.37 units, the fasting blood glucose was 177.1 ± 8.28 mg/dL, the “glucose AUC calculated from the OGTT” value is on record as 17055+/−769.1 and the “plasma insulin at t=0” value amounted to 3.12 ± 0.24 ng/mL. Also, the “plasma insulin at t=2 hr” value in series [4] came to 2.88 ± 0.21 ng/mL. For the same compound, in series [5] (ICR mice liver), the Cry2 transcripts entry is recorded as “decrease” and the “increase in Bmal1 mRNA at ZT6” value stood at 4 fold. Also, the “liver Per2 expression” value in series [5] (ICR mice, ZT6) was “suppression”.
